Test results from patent US11649218B2, “C-Abl tyrosine kinase inhibitory compound embodiments and methods of making and using the same” (The USA, as represented by the Secretary, Dept. of Health …, priority 2018, dated 2023).

Experiments:
[1] = Pharmacokinetic profile in brain; type: in vivo, mice; conditions: 12.5 mg/kg IP
[2] = Pharmacokinetic profile in plasma; type: in vivo, mice; conditions: 12.5 mg/kg IP
[3] = system: Leukemia K562 cell; assay: Leukemia K562 cell proliferation/viability assay (CellTiterGlo, 48 hours); type: cell-based; parameters: unit not given here; conditions: K562 cells
Protocol: C-Abl is encoded by the ABL1 gene (NCBI Gene ID NO. 25). […] Assays for determining if a small molecule inhibits c-Abl activity are known. Non-limiting examples include cell proliferation assays using cancer cells that are BCR-Abl positive and depend on BCR-Abl for growth, such as the leukemia cell line K562. […] In some embodiments described herein, compounds are tested for ability to reduce K562 cell proliferation in an HTS adapted assay which measures cell viability using the reagent CellTiterGlo after 48 hours treatment.

[4] = system: P. falciparum strain NF54 asexual parasites; assay: Asexual stage parasite growth inhibition, SYBR Green assay, 72 hours; type: cell-based; conditions: NF54, 72 hours; for IC50: Plasmodium falciparum
Protocol: In this example, several of the c-Abl inhibitors were tested in the asexual […] strain of P. falciparum parasites for activity against malaria. […] The pre-diluted parasites were dispensed into a 1536-well plate (2.5 μL/well). […] The fluorescence of each well was measured at 520 nm following excitation at 490 nm using a ViewLux platereader (PerkinElmer).

Row | Structure (SMILES) | Efficacy [3] | other results
1 | O=C(Nc1ccc(OC(F)(F)Cl)cc1)c1cnc(N2CC[C@@H](O)C2)c(-c2ccn[nH]2)c1 [ABL001] |  | Brain concentration ([1]; Time 0.167): 0.330 µmol/kg; Brain concentration ([1]; Time 0.5): 0.534 µmol/kg; Brain concentration ([1]; Time 1): 0.597 µmol/kg; Brain concentration ([1]; Time 1.5): 0.442 µmol/kg; Brain concentration ([1]; Time 2): 0.336 µmol/kg; Brain concentration ([1]; Time 4): 0.119 µmol/kg; Brain concentration ([1]; Time 7): 0.056 µmol/kg; Brain concentration ([1]; Time 24): 0.003 µmol/kg; Plasma concentration ([2]; Time 0.167): 5.454 µM; Plasma concentration ([2]; Time 0.5): 9.137 µM; Plasma concentration ([2]; Time 1): 11.174 µM; Plasma concentration ([2]; Time 1.5): 10.189 µM; Plasma concentration ([2]; Time 2): 5.483 µM; Plasma concentration ([2]; Time 4): 1.628 µM; Plasma concentration ([2]; Time 7): 0.399 µM; Plasma concentration ([2]; Time 24): 0.007 µM
2 | NC(=O)c1cccc(-c2cc(Nc3ccc(OC(F)(F)F)cc3)ncn2)c1 [GNF-2] | −85.2 | % Killing [4]: 86.0%; IC50 [4]: 1.4 µM
3 | CC(C)(CO)n1cc(-c2ccc3c(c2)C(=O)Nc2cc(OC(F)(F)F)ccc2O3)cn1 [NCGC00387295, 2-(1-(Hydroxy-2-methylpropan-2-yl)-1H-pyrazol-4-yl)-8-(trifluoromethoxy)dibenzo[b,f][1,4]oxazepin-11(10H)-one] | −87.7 | 
4 | O=C1Nc2cc(OC(F)(F)F)ccc2Oc2ccc(-c3cnn(CCN4CCOCC4)c3)cc21 [NCGC00387296, 2-(1-(2-Morpholinoethyl)-1H-pyrazol-4-yl)-8-(trifluoromethoxy)dibenzo[b,f][1,4]oxazepin-11(10H)-one] | −81.7 | 
5 | CN(C)CCn1cc(-c2ccc3c(c2)C(=O)Nc2cc(OC(F)(F)F)ccc2O3)cn1 [NCGC00387297, 2-(1-(2-(Dimethylamino)ethyl)-1H-pyrazol-4-yl)-8-(trifluoromethoxy)dibenzo[b,f][1,4]oxazepin-11(10H)-one] | −115.7 | 
6 | O=C1Nc2cc(OC(F)(F)F)ccc2Oc2ccc(-c3cnn(C4COC4)c3)cc21 [NCGC00387298, 2-(1-(Oxetan-3-yl)-1H-pyrazol-4-yl)-8-(trifluoromethoxy)dibenzo[b,f][1,4]oxazepin-11(10H)-one] | −93.8 | 
7 | COC(=O)c1ccc2c(c1)C(=O)Nc1cc(OC(F)(F)F)ccc1O2 [NCGC00387394] | 0.0 | 
8 | O=C1Nc2cc(OC(F)(F)F)ccc2Oc2ccc(-c3cnn(CCO)c3)cc21 [NCGC00387403, 2-(1-(2-Hydroxyethyl)-1H-pyrazol-4-yl)-8-(trifluoromethoxy)dibenzo[b,f][1,4]oxazepin-11(10H)-one] | −37.6 | 
9 | NC(=O)Cn1cc(-c2ccc3c(c2)C(=O)Nc2cc(OC(F)(F)F)ccc2O3)cn1 [NCGC00387404, 2-(4-(11-Oxo-8-(trifluoromethoxy)-10,11-dihydrodibenzo[b,f][1,4]oxazepin-2-yl)-11-pyrazol-1-yl)acetamide] | −8.8 | 
10 | O=C1Nc2cc(OC(F)(F)F)ccc2Oc2ccc(B(O)O)cc21 [NCGC00387437, (11-Oxo-8-(trifluoromethoxy)-10,11-dihydrodibenzo[b,f][1,4]oxazepin-2-yl)boronic acid] | −82.6 | 
11 | O=C(O)c1ccc2c(c1)C(=O)Nc1cc(OC(F)(F)F)ccc1O2 [NCGC00387752] | 0.0 | 
12 | O=C1Nc2cc(OC(F)(F)F)ccc2Oc2ccc(-c3ccc(CN4CCOCC4)s3)cc21 [NCGC00388536, 2-(5-(Morpholinomethyl)thiophen-2-yl)-8-(trifluoromethoxy)dibenzo[b,f][1,4]oxazepin-11(10H)-one] | −83.1 | 
13 | NCc1ccc(-c2ccc3c(c2)C(=O)Nc2cc(OC(F)(F)F)ccc2O3)s1 [NCGC00388547, 2-(5-(Aminomethyl)thiophen-2-yl)-8-(trifluoromethoxy)dibenzo[b,f][1,4]oxazepin-11(10H)-one] | −91.7 | 
14 | CC(=O)NCc1ccc(-c2ccc3c(c2)C(=O)Nc2cc(OC(F)(F)F)ccc2O3)s1 [NCGC00388557, N-((5-(11-Oxo-8-(trifluoromethoxy)-10,11-dihydrodibenzo[b,f][1,4]oxazepin-2-yl)thiophen-2-yl)methyl)acetamide] | −81.9 | 
15 | O=C1Nc2cc(OC(F)(F)F)ccc2Oc2ccc(-c3ccc(CN4CCNCC4)s3)cc21 [NCGC00388560, 2-(5-(Piperazin-1-ylmethyl)thiophen-2-yl)-8-(trifluoromethoxy)dibenzo[b,f][1,4]oxazepin-11(10H)-one] | −95.0 | 
16 | CC(=O)c1csc(-c2ccc3c(c2)C(=O)Nc2cc(OC(F)(F)F)ccc2O3)c1 [NCGC00388580, 2-(4-Acetylthiophen-2-yl)-8-(trifluoromethoxy)dibenzo[b,f][1,4]oxazepin-11(10H)-one] | −92.6 | 
17 | N#CCn1cc(-c2ccc3c(c2)C(=O)Nc2cc(OC(F)(F)F)ccc2O3)cn1 [NCGC00388626, 2-(4-(11-Oxo-8-(trifluoromethoxy)-10,11-dihydrodibenzo[b,f][1,4]oxazepin-2-yl)-1H-pyrazol-1-yl)acetonitrile] | −34.8 | 

Row | Structure (SMILES) | Efficacy [3] | other results
18 | O=C1Nc2cc(OC(F)(F)F)ccc2Oc2ccc(CCB(O)O)cc21 [NCGC00390141, (2-(11-Oxo-8-(trifluoromethoxy)-10,11-dihydrodibenzo[b,f][1,4]oxazepin-2-yl)ethyl)boronic acid] | −45.8 | 
19 | O=C1Nc2cc(OC(F)(F)F)ccc2Oc2ccc(CCCB(O)O)cc21 [NCGC00390142, (3-(11-Oxo-8-(trifluoromethoxy)-10,11-dihydrodibenzo[b,f][1,4]oxazepin-2-yl)propyl)boronic acid] | −103.4 | 
20 | O=C1Nc2cc(OC(F)(F)F)ccc2Oc2ccc(-c3cnc4ccnn4c3)cc21 [NCGC00409812, 2-(pyrazolo[1,5-a]pyrimidin-6-yl)-8-(trifluoromethoxy)dibenzo[b,f][1,4]oxazepin-11(10H)-one] | −69.0 | 
21 | O=C1Nc2cc(OC(F)(F)F)ccc2Oc2ccc(-c3ccnc(N4CCOCC4)c3)cc21 [NCGC00411866, 2-(2-Morpholinopyridin-4-yl)-8-(trifluoromethoxy)dibenzo[b,f][1,4]oxazepin-11(10H)-one] |  | % Killing [4]: 92.9%; IC50 [4]: 9.69 µM
22 | O=C1Nc2cc(OC(F)(F)F)ccc2Oc2ccc(-c3cccc(-c4ccn[nH]4)c3)cc21 [NCGC00411874, 2-(3-(1H-Pyrazol-5-yl)phenyl)-8-(trifluoromethoxy)dibenzo[b,f][1,4]oxazepin-11(10H)-one] | −84.3 | 
23 | CC(C)(O)c1cccc(-c2ccc3c(c2)C(=O)Nc2cc(OC(F)(F)F)ccc2O3)c1 [NCGC00411876, 2-(3-(2-Hydroxypropan-2-yl)phenyl)-8-(trifluoromethoxy)dibenzo[b,f][1,4]oxazepin-11(10H)-one] | −86.3 | 
24 | O=C1Nc2cc(OC(F)(F)F)ccc2Oc2ccc(-c3cccc(B(O)O)c3)cc21 [NCGC00415019, (3-(11-Oxo-8-(trifluoromethoxy)-10,11-dihydrodibenzo[b,j][1,4]oxazepin-2-v)phenyl)boronic acid] | −79.0 | 
25 | O=C1Nc2cc(OC(F)(F)F)ccc2Oc2ccc(-c3cccc(CO)c3)cc21 [NCGC00415061, 2-(3-(Hydroxymethyl)phenyl)-8-(trifluoromethoxy)dibenzo[b,f][1,4]oxazepin-11(10H)-one] | −71.4 | 
26 | O=C1Nc2cc(OC(F)(F)F)ccc2Oc2ccc(-c3cccc(-c4nn[nH]n4)c3)cc21 [NCGC00420743, 2-(3-(2H-Tetrazol-5-yl)phenyl)-8-(trifluoromethoxy)dibenzo[b,f][1,4]oxazepin-11(10H)-one] | 0.0 | 
27 | N#Cc1ccc2c(c1)NC(=O)c1cc(-c3ccnc(N4CCOCC4)c3)ccc1O2 [NCGC00481503, 2-(2-Morpholinopyridin-4-yl)-11-oxo-10,11-dihydrodibenzo[b,f][1,4]oxazepine-8-carbonitrile] | −80.5 | 
28 | O=C1Nc2cc(OCC(F)(F)F)ccc2Oc2ccc(-c3ccnc(N4CCOCC4)c3)cc21 [NCGC00481504, 2-(2-Morpholinopyridin-4-yl)-8-(2,2,2-trifluoroethoxy)dibenzo[b,f][1,4]oxazepin-11(10H)-one] | −85.1 | 
29 | O=C1Nc2cc(C(F)(F)F)ccc2Oc2ccc(-c3ccnc(N4CCOCC4)c3)cc21 [NCGC00481506, 2-(2-Morpholinopyridin-4-yl)-8-(trifluoromethyl)dibenzo[b,f][1,4]oxazepin-11(10H)-one] | −87.5 | 
30 | O=C1Nc2cc(OCCC(F)(F)F)ccc2Oc2ccc(-c3ccnc(N4CCOCC4)c3)cc21 [NCGC00481507, 2-(2-Morpholinopyridin-4-yl)-8-(3,3,3-trifluoropropoxy)dibenzo[b,f][1,4]oxazepin-11(10H)-one] | −85.5 | 
31 | O=C1Nc2cc(OC(F)(F)F)ccc2[S+]([O-])c2ccc(-c3ccnc(N4CCOCC4)c3)cc21 (stereo not drawn) [NCGC00482446, 2-(2-Morpholinopyridin-4-yl)-8-(trifluoromethoxy)dibenzo[b,f][1,4]thiazepin-11(10H)-one 5-oxide] | −83.3 | 
32 | O=C1Nc2cc(OC(F)(F)F)ccc2Sc2ccc(-c3ccnc(N4CCOCC4)c3)cc21 [NCGC00482456, 2-(2-Morpholinopyridin-4-yl)-8-(trifluoromethoxy)dibenzo[b,f][1,4]thiazepin-11(10H)-one] | −85.7 | 
33 | O=C1Nc2cc(OC(F)(F)F)ccc2S(=O)(=O)c2ccc(-c3ccnc(N4CCOCC4)c3)cc21 [NCGC00483140, 2-(2-Morpholinopyridin-4-yl)-8-(trifluoromethoxy)dibenzo[b,f][1,4]thiazepin-11(10H)-one 5,5-dioxide] | −87.2 | 
